# According to patent US20050118226A1, “Methods for treating ACAT-related diseases” (priority 2003, published 2005):
# “Also recorded” adds a separate entry of the source.
# What was measured:
# adrenal cortical cells = test: Adrenal gland histology (hematoxylin and eosin) for CP-113,818 toxicity in hAPP mice; assay type: in vivo; settings: 7.2 mg/kg per day, two months, 7.2 mg/kg/day
# Method: Animals were sacrificed the day after the last MWM training, on day 57 of treatment. Blood was obtained by cardiac puncture and total serum was used for cholesterol determination. Transcardiac perfusion with 4C PBS was performed, followed by dissection. Brains were removed, divided along the sagittal plane and then either frozen in liquid nitrogen or imersion fixed with 4% paraformaldehyde for histologic evaluation. Liver was frozen in liquid nitrogen, and adrenal glands were fixed in 4% paraformaldehyde followed by standard paraffin embedding and sectioning. Hematoxylin and eosin stained 6-8 um sections were analyzed for evidence of CP-113,818 toxicity.
# To characterize the effect of CP-113,818 treatment on AD-like pathology, we used hAPP mice that express human APP751 containing the London (V717I) and Swedish (K670M/N671L) mutations under the regulatory control of the murine Thy-1 promoter (mThy1-hAPP751) (Rockenstein et al., 2001). These animals develop detectable plaques in the neocortex and hippocampus at the ages of 4 and 6 months, respectively, and show memory deficits starting at 6 months of age. […] Therefore, we included similar numbers of male and female animals in both placebo and CP-113,818 groups to detect possible gender-specific effects of the inhibitor in our mouse model. […]
# [1] = rat, in vivo; cited from earlier work
# ACAT = test: Cholesterol determinations in non-transgenic mice given 21 day-release CP-113,818 pellets; assay type: in vivo; settings: 21 days
# Text: hAPP transgenic mice overexpress human APP751 with the London (V717I) and Swedish (K670M/N671L) mutations under the regulatory control of the neuron specific murine (m)Thy-1 promoter (mThy-1-hAPP751; heterozygous with respect to the transgene, on a C57BL/6 F3 background) (Rockenstein et al., 2001). The hAPP colony was sustained by crossing transgenic APP751 with C57BL/6 (Harlan Winkelman, Germany). Corresponding littermates were used for control studies. All mice were housed according to standard animal care protocols, fed ad libitum with standard chow diet, and maintained in a pathogen-free environment in single ventilated cages at JSW Research. The transgenic status of each animal was confirmed by real time PCR of tail snips using specific primers and the appropriate hybridization probe. A modified Irvine test was regularly performed prior to the experiment to assess the neurological status of the animals; those showing disturbances were excluded from the experiments. Mice were then randomly assigned to different treatment groups and individually coded. Investigators performing behavioral testing, biochemical analyzes and histomorphological evaluations of the brains were blinded in terms of group allocation of the mice. CP-113,818, a potent inhibitor of both ACAT1 and ACAT2 (Chang et al., 2000), was graciously provided by Dr. James Harwood, Pfizer (Groton, Conn.). The drug was compounded in release pellets for continuous dosing by Innovative Research of America (Sarasota, Fla.). Only the test compound, but not carrier biopolymers and substances in the pellets, are released into the bloodstream. Pellets were generated to provide either 21 day or 60 days of continuous drug delivery. For implantation of pellets, animals were anesthized with isofluorance. Then, sterile pellets containing either CP-113,818 or placebo were implanted subcutaneously along the anterolateral aspect of the left shoulder with a special precision trocar in accordance with the suppliers instructions.
# Tissues were homogenized in the presence of trypsin (10 mg/ml) in a Dounce homogenizer on ice. Protein concentration of the homogenate was determined using the BCA protein assay kit (Pierce). The tissue homogenate was extracted in chloroform:methanol (2:1, v/v) overnight. Before drying the chloroform phase, polyoxyethylene-9-lauryl ether (Sigma; 5 μl/ml of extract) was added. Dried lipid pellets were dissolved in water and total amount of cholesterol was determined with an enzymatic assay (Sigma; cat. no. 402-20). As control, free cholesterol was determined with a different enzymatic assay (R-Biopharm GmbH, Darmstadt, Germany; cat. no. E0139050). The amount of cholesteryl-esters was calculated by subtracting free from total cholesterol. Finally, the values were normalized to protein concentration of the tissue homogenate and expressed in mg of cholesterol per g of protein.
# CP-113,818 is a fatty-acid anilide derivative designed to mimic the acyl-CoA substrate of ACAT and a potent ACAT inhibitor in vitro, cell culture, and animals (Chang et al., 2000; Marzetta et al., 1994; Puglielli et al., 2001). In order to determine the in vivo efficacy of CP-113,818 in reducing mouse brain cholesteryl-ester levels, we initially treated non-transgenic animals with the ACAT inhibitor. Most ACAT inhibitors are poorly absorbed when administered orally, and are quickly turned over in the blood or tissues (Marzetta et al., 1994). […]
# Aβ40 = Aβ40 (Homo sapiens, UniProt P05067); test: Turbidity assay of Aβ40 aggregation; settings: 10 μM, absorbance at 400 nm over four days
# Chain of Aβ40 (P05067 672-711 limits assumed): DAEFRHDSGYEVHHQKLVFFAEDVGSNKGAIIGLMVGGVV
# Method: Aβ40 aggregation was monitored according to the method of Jarrett et al. (Jarrett et al., 1993). Briefly, Aβ40 (100 μg/ml) was incubated at 37° C. in TBS in a 384-well plate (60 μl/well). Well turbidity was monitored for four days by following absorbance at 400 nm. Aβ40 aggregation was promoted by the addition of “aged” (pre-incubated for 2 weeks at room temperature) Aβ42 (Aβ42/Aβ40=1/10) (Jarrett et al., 1993) or Zn/histine buffer (50 μM Zn++in 350 μM histine) (Bush et al., 1994). Absorbance of test wells was blanked on signal from samples without Aβ40. For some experiments, incubation buffers included CP-113,818 (10 μM).
# [2] = 7.1 mg/kg/day, subcutaneous pellet, vs placebo
structure (smiles),measurement,setting,value
"CCCCCCCC[C@H](SCCCCCC)C(=O)Nc1c(SC)cc(C)nc1SC [CP-113,818]",adrenal toxicity (vacuolization in cytoplasm of adrenal cortical cells),adrenal cortical cells,no histologic evidence of toxicity; also recorded: did not show signs of vacuolization
same,tolerated dose,[1],150 mg/kg per day
same,effect on food consumption and body weight,ACAT; 7.1 mg/kg per day,absence of any evident effect
same,reduction of cholesteryl-ester levels in the brain,ACAT; [2],86%
same,reduction of total cholesterol in the serum,ACAT; [2],29%
same,decrease of free or membrane cholesterol in the liver,"ACAT; 0.2-7.1 mg/kg/day, dose-dependent",up to 37%
same,effect on free cholesterol levels in the brain,ACAT,no effect
same,effect on metal- or Aβ42-mediated aggregation of Aβ40 in vitro,Aβ40,failed to directly inhibit; also recorded: does not directly modulate
